In article PMC9224243, “Palmitic Amide Triggers Virus Life Cycle via Enhancing Host Energy Metabolism” (Frontiers in Microbiology, 2022):

System: T1, acetate kinase
T1 construct: gene ackA; purified recombinant acetate kinase
Assay: ITC at […]°C ([…] protein, […] compound); also bead pull-down with MS and Western blot, and increased activity of the purified enzyme at […]
Format: binding, Geobacillus sp. E263

CCCCCCCCCCCCCCCC(N)=O [palmitic amide]
Kd: 13.2 ± 28.1 µM
